The test system of this assay is CEM cells HIV-1 protection, formazan growth assay. As to the kind of experiment: NCI AIDS Antiviral Assay. Conditions: for IC50: measured here: growth of uninfected CEM cells. The method, boiled down: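 Five concentrations of each compound were applied to infected and uninfected human CEM cells. Protection from HIV-1 was judged from growth measured with a soluble formazan assay.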

The structures appear in SMILES notation. The source made the active and inactive calls.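 Rule for the calls: active = compounds giving half or more protection of infected cells from virus-caused growth loss, again on retest; inactive = the rest.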

`O=C1CS/C(=N/N=C/c2nc3ccccc3c(=O)n2-c2ccc(Cl)cc2)N1c1ccccc1`: the EC50 is over 38 µM and the IC50 was over 38 µM.

As for `CCOC(=O)C1NCCc2c1[nH]c1ccccc21` (stereo not drawn), the EC50 was over 67.6 µM and the IC50 was determined as 44.7 µM.

Regarding `CC(=O)N(C(C)=O)c1nc2c(c(=O)n(C)c(=O)n2C)n1C`, the EC50 is over 200 µM and the IC50 was over 200 µM.

For the compound `O=C(O)C(F)(OC(F)(F)C(F)(OC(F)(F)C(F)(F)C(F)(F)F)C(F)(F)F)C(F)(F)F` (stereo not drawn), the EC50 is over 200 µM and the 50% inhibitory concentration (IC50) is over 200 µM.

`O=C1CC(C2(c3ccc4c(c3)OCO4)SCCCS2)CO1` (stereo not drawn): the EC50 was over 155 µM and the IC50 was over 155 µM.

As for `COC1OC2COC(c3ccccc3)OC2C2N=C(N)N([N+](=O)[O-])C12OS(C)(=O)=O` (stereo not drawn), the result was inactive.

`NC(CSCc1ccccc1)C(=O)O` (stereo not drawn): the EC50 is over 224 µM and the concentration for half-maximal inhibition (IC50) is over 224 µM.

Turning to `CC1(CC(O)(C(F)(F)F)C(F)(F)F)NC(=O)NC1=O` (stereo not drawn), the EC50 was over 200 µM and the half-inhibitory concentration (IC50) was over 200 µM.

Turning to `NCCn1c(-c2ccccc2)nc2ccccc2c1=O`, the EC50 is over 200 µM and the half-maximal inhibitory concentration (IC50) turned out to be 123 µM.

With `O=c1c2c3c(sc2nc2n1N=CN(c1ccc(Cl)cc1)C2)CCCC3`, the EC50 is over 200 µM and the half-maximal inhibitory concentration (IC50) worked out at 38 µM.

Turning to `O=C(OC1CCCCC1)c1cc(NC(=S)c2ccccc2F)ccc1Cl`, the half-maximal effective concentration (EC50) was 0.0363 µM and the half-inhibitory concentration (IC50) came out at 18.2 µM.

For `CCCC(=O)N1CCN(c2ccc3c(c2)OC(C)O3)CC1` (stereo not drawn), the EC50 was over 200 µM and the IC50 is over 200 µM.

For the compound `NS(=O)(=O)c1cc2c(cc1Cl)NC(C(=O)c1cc(=O)c3ccc(O)cc3o1)=NS2(=O)=O`, the EC50 was over 513 µM and the concentration for half-maximal inhibition (IC50) is over 513 µM.

For `O=c1c2ccccc2nc(N/N=C/c2ccccc2O)n1-c1ccccc1`, the EC50 is over 200 µM and the half-maximal inhibitory concentration (IC50) amounted to 1.48 µM.

In the case of `Cc1ccc(/C=C2\CN(C)CC3C2=NC(=S)NC3c2ccc(C)cc2)cc1` (stereo not drawn), the EC50 is over 200 µM and the IC50 was found to be 24.5 µM.

`O=C1C=C(c2c(O)ccc3ccccc23)c2cc(O)ccc2C1=O`: the EC50 is over 112 µM and the IC50 is 6.61 µM.

Regarding `CCN(CC)CCO/N=C1\CC[C@H]2[C@@H]3CC=C4C[C@@H](O)CC[C@]4(C)[C@H]3CC[C@]12C`, the EC50 is over 200 µM and the IC50 was determined as 15.5 µM.

As to `CCOP(=S)(OCC)Oc1ccc2c(c1)OC(=O)C1(Cl)C2(C)C2(Cl)C(=O)Oc3cc(OP(=S)(OCC)OCC)ccc3C12C` (stereo not drawn), the EC50 is over 18.6 µM and the IC50 was over 18.6 µM.

Consider `O=C(/C=C\c1ccsc1)c1ccccc1`, for which the EC50 was over 200 µM and the half-maximal inhibitory concentration (IC50) is 3.24 µM.

Take `CN(C)c1nn2c(-c3ccccc3)nnc2o1`: the EC50 is over 200 µM and the IC50 is over 200 µM.

As to `CCCCCCCCCCCCC(Br)C(=O)OCC1OC(n2cc(C)c(=O)[nH]c2=O)CC1O` (stereo not drawn), the EC50 is over 200 µM.

`O=C(C=Nc1ccccc1C(=O)[O-])c1cccs1.O=C(C=Nc1ccccc1C(=O)[O-])c1cccs1.[Cu+2]`: the outcome was inactive.

As to `N#Cc1ccccc1NC(=O)C(=O)C(C(=O)c1ccncc1)C1OC(=O)c2ccccc21` (stereo not drawn), the EC50 is over 589 µM and the IC50 is over 589 µM.

As to `Cc1ccc2nc(-c3ccc(N=Nc4cc(S(=O)(=O)O)c5ccccc5c4O)cc3)sc2c1S(=O)(=O)O`, the EC50 is over 50.1 µM and the half-inhibitory concentration (IC50) was over 50.1 µM.

Consider `CC(=O)OCC1OC(n2c(C)c(C)c(C)c(C#N)c2=S)C(OC(C)=O)C(OC(C)=O)C1OC(C)=O` (stereo not drawn), for which the EC50 is over 200 µM and the IC50 was over 200 µM.

In the case of `O=C1[O][Hg][c]2cccc3cccc1c23`, the result was inactive.

In the case of `CN(C)c1ccc(-c2c(C#N)c(N)[nH]c(=S)c2C#N)cc1`, the EC50 is over 126 µM and the IC50 worked out at 50.1 µM.

For the compound `O=C1/C(=C/c2ccccc2)NC(=S)N1CN1CCCCC1`, the EC50 is over 200 µM and the concentration for half-maximal inhibition (IC50) stood at 33.9 µM.

Take `O=C(Nc1ccc(Cl)cc1)c1ccccc1[Se][Se]c1ccccc1C(=O)Nc1ccc(Cl)cc1`: the EC50 was 2.95 µM and the IC50 was found to be 8.51 µM.

As to `O=C1c2cccc3cc([N+](=O)[O-])cc(c23)C(=O)N1Cc1ccccc1`, the EC50 is over 200 µM and the half-maximal inhibitory concentration (IC50) amounted to 5.75 µM.

Consider `O=C(Nc1cc2c(=O)oc3ccccc3c2oc1=O)c1cccnc1`, for which the EC50 was over 100 µM and the half-maximal inhibitory concentration (IC50) was over 100 µM.

As for `CN(NC(=O)c1ccco1)C1=NCCN1`, the EC50 is over 200 µM and the IC50 was over 200 µM.

With `C=C1CN(S(=O)(=O)c2ccc(C)cc2)CCCN(Cc2cccs2)CCCN(S(=O)(=O)c2ccc(C)cc2)C1`, the EC50 was over 200 µM and the concentration for half-maximal inhibition (IC50) worked out at 70.8 µM.

As to `COc1ccc(N2C(=O)C3c4[nH]c5ccc(Br)cc5c4C4CCC(C(C)(C)C)CC4C3C2=O)cc1` (stereo not drawn), the outcome was inactive.

As for `O=C(CCc1ccc(O)c(O)c1)OCCc1ccccc1`, the EC50 was over 200 µM and the IC50 was found to be 6.61 µM.

For `C[N+](C)(CCNC(=O)c1cccc2cc3ccccc3nc12)Cc1ccc([N+](=O)[O-])cc1`, the EC50 is over 200 µM and the half-maximal inhibitory concentration (IC50) stood at 97.7 µM.

For `O=C(/C=C/c1cccs1)c1ccc([N+](=O)[O-])cc1`, the EC50 was over 200 µM.

For the compound `Cc1nc(N)nc(CCC(=O)Nc2cccc(C(F)(F)F)c2)c1-c1ccc(Cl)cc1`, the EC50 was over 302 µM and the IC50 was over 302 µM.

As for `C/C(=N\NS(=O)(=O)c1ccc(C)cc1)c1ccccn1`, the EC50 is over 200 µM and the IC50 came to 58.9 µM.

As to `CC(C)(C)OC(=O)N1CC(O)O[C@H](c2ccccc2)[C@@H]1c1ccccc1` (stereo partly drawn), the EC50 is over 200 µM and the IC50 was 32.4 µM.

In the case of `C=C[C@]1(O[Si](C)(C)C)C[C@@]2(C(=O)OCC)C(O)C(=O)N3CCc4cc(OC)c(OC)cc4[C@]312` (stereo partly drawn), the EC50 is over 200 µM and the IC50 was over 200 µM.

For `O=C=Nc1cc(S(=O)(=O)c2ccc(Cl)c(N=C=O)c2)ccc1Cl`, the EC50 was over 200 µM and the concentration for half-maximal inhibition (IC50) is over 200 µM.

As to `COC(=O)c1cc2c3ccccc3n(C(C)=O)c2cn1`, the result was inactive.

Regarding `CC1(C)CCCC2(C)C3C(O)CC2(C)C(O)C31` (stereo not drawn), the EC50 was over 282 µM and the IC50 was over 282 µM.

In the case of `[N-]=[N+]=NC1CC(n2cc(Cc3ccccc3)c(N)nc2=O)OC1CO` (stereo not drawn), the EC50 was over 724 µM and the half-inhibitory concentration (IC50) is over 724 µM.

On to `O=C1NC(O)c2cccc(Cl)c2O1` (stereo not drawn), for which the result was inactive.

`Cc1[nH]c2ccccc2c1C1Cc2ccccc2N1` (stereo not drawn): the result was inactive.

As to `Cn1cc(NC(=O)Nc2cc(C(=O)Nc3cc(C(=O)Nc4cc(P(=O)(O)O)c5cccc(P(=O)(O)O)c5c4)n(C)c3)n(C)c2)cc1C(=O)Nc1cc(C(=O)Nc2cc(P(=O)(O)O)c3cccc(P(=O)(O)O)c3c2)n(C)c1`, the concentration for a half-maximal effect (EC50) is 89.1 µM and the IC50 is 126 µM.

As for `CC1=C(C(=O)Nc2ccccc2)C(c2ccc(Cl)c(Cl)c2)C(C(=O)Nc2ccccc2)=C(C)N1`, the EC50 was over 10.7 µM and the IC50 was over 10.7 µM.

Regarding `O=C(c1cc(Cl)ccc1Cl)N1CCN(c2ccc(Cl)c(Cl)c2)CC1`, the EC50 is over 200 µM and the 50% inhibitory concentration (IC50) was found to be 25.1 µM.

On to `CC[C@@]1(O)C(=O)OCc2c1cc1n(c2=O)Cc2cc3cc(OC)ccc3nc2-1`, for which the EC50 was over 0.1 µM and the IC50 is 0.0186 µM.

(Values after PubChem BioAssay AID179 (DTP/NCI, 2004).)
